Data taken from patent US10407712B2, “Methods, compositions and kits for high throughput kinase activity screening using mass spectrometry and stable isotopes” (President and Fellows of Harvard College, priority 2008, dated 2019).

Columns and labels:
Src family kinase = experiment: Immunoblot of HEK293 cells treated with Src family kinase inhibitor; assay type: cell-based, human; settings: asynchronously growing HEK293 cells
Method: FIG. 7E is a photograph of immunoblot data of lysates following treatment of asynchronously growing HEK293 cells with Sic family kinase (SFK) specific inhibitor SU6656 in starved or serum-fed cells.
Lysates were resolved on 4 to 12% SDS/PAGE, transferred onto Potran membranes (Whatman), blocked with 3% milk in TBST (Tris Buffered Saline Tween-20), incubated with 1:1,000 dilution of primary antibody at 4° C. overnight, washed, and incubated with a 1:5,000 dilution of second antibody (HRP-conjugated) with 3% milk in TBST for 1 h at room temperature. Bands were visualized with ECL solution (Roux et al. 2004 Proc Natl Acad Sci USA 101: 13489-[…]).
To further investigate whether this is a Src-dependent site in vivo, asynchronously growing HEK293 cells were treated with the specific Src family kinase inhibitor, Su6656. […] Further, MCF10A cells expressing v-Src:estrogen receptor (Reginato et al. 2005 Mol Cell Biol 25: 4591-4601) were treated with 1 μM 4-hydroxytamoxifen (4-HT) to activate v-Src as a function of time (FIG. 7F).

HeLa cell lysates = experiment: KAYAK in vitro kinase assay, lysates of asynchronous, G1/S- or G2/M-arrested HeLa cells; assay type: biochemical, human
Method: For cell cycle examples, HeLa cells were synchronized by double thymidine block for G1/S-arrest and by 0.2 μg/ml nocodazole for G2/M-arrest as described (Dephoure et al. 2008 Proc Natl Acad Sci USA 105: 10762-10767). Synchronization was confirmed by flow cytometry.
For cell lysis, the media were removed, and cells were washed with ice-cold phosphate-buffered saline (PBS) and lysed with ice-cold lysis buffer (10 mM K2HPO4 pH 7.5, 1 mM EDTA, 10 mM MgCl2, 50 mM β-glycerophosphate, 5 mM EGTA, 0.5% Nonidet P-40, 0.1% Brij 35, 0.1% deoxycholic acid, 1mM sodium orthovanadate, 1mM phenylmethyl-sulfonyl fluoride, 5 μg/ml leupeptin and 5 μg/ml pepstatin A). Lysates were centrifuged at 10,000 rpm for 10 min to remove cell debris, and clear supernatant was used for immunoblotting and in vitro kinase assays. Protein concentration was determined by Bradford assay (Biorad, Hercules, Calif.).
Peptides were synthesized, purified and quantified as described in Yu et al. 2009 Proc Natl Acad Sci USA 106: 11606-11611, hereby incorporated by reference herein in its entirety. Each substrate peptide (250 pmol) was mixed to a final concentration of 5 μM in the 50 μL reaction mixture. Alternatively, reactions were performed using 6 μg cell lysate aliquotes mixed to a final volume of 20 μl. Cell lysate or other kinase source was added to the substrate mixture in 25 mM Tris-Cl, pH 7.5, containing 5 mM ATP, 7.5 mM MgCl2, 0.2 mM EGTA, 7.5 mM β-glycerophosphate, 0.1 mM Na3VO4, and 0.1 mM DTT. The reaction was incubated at 25° C. for 60 min and then terminated by the addition of 100 μl of 1% trifluoroacetic acid (TFA) containing a known amount of an internal standard (typically 20 pmol). Alternatively, the reaction was incubated at 20° C. for 45 min before termination with TFA.
Forty-five individual in vitro kinase reaction mixtures were combined and desalted by using Sep-Pak C18 cartridge (Waters, Milford, Mass.). Phosphopeptides were enriched by immobilized metal ion chromatography (IMAC) with 20 μl of beads (Phos-Select iron affinity gel; Sigma, St. Louis, Mo.) and subsequently desalted by using Empore C18 solid phase extraction disks (3M, St. Paul, Minn.) as described previously.
Quantitation of the target peptide-internal standard ratios was performed by first constructing the extracted ion chromatogram for the most abundant charge state for each peptide using a ±10 ppm window. Chromatograms were integrated using Qual/Quan browser (Xcalibur 2.0.5, Thermo Fisher, San Jose, Calif.). Since the phosphorylated peptides generated from the in vitro kinase reactions were chemically identical to the internal standards, they were assumed to have the same ionization efficiency. Therefore, the amount of each phosphorylated peptide was calculated by direct ratio to the internal standard level.
To test substrate suitability in a multiplexed assay, the phosphorylation activities were measured using […] of each substrate peptide, 6 μg lysate, and 5 mM ATP in a plate format. Reactions proceeded for 60 minutes followed by acidification and the addition of isotope-labeled reference peptides. After pooling 45 samples, phosphopeptide enrichment was followed by liquid-chromatography (LC) separation and on-line peptide detection by high-resolution mass spectrometry.
In order to examine target peptides with cell-cycle-dependent phosphorylation, kinase activities in asynchronously growing HeLa cells were profiled and the profiles were compared with those of cells synchronized in G1/S and G2/M phase using a double-thymidine block and nocodazole arrest, respectively (FIG. 3B).

Src = target: T1, Src (Homo sapiens, UniProt P12931); experiment: In vitro kinase reaction of H5 peptide with purified Src; assay type: biochemical
T1 construct: Src (full length); purchased Cell Signaling Technology (Danvers, Mass.)
Excerpt: (§1) FIG. 7D is a line graph showing in vitro phosphorylation of peptide H5 (SEQ ID NO: 87) using each of purified Src and EGFR.
(§2) Purified human active kinases of Akt1 (full length), extracellular signal-regulated kinase 1 (ERK1, 1-379), mitogen-activated protein kinase kinase 1 (MEK1, 1-393), 90 kDa ribosomal S6 kinases 1 (RSK1, 1-735), cAMP-dependent protein kinase (PKA) catalytic subunit-α (PKA Cα, 1-351), protein kinase Cα (PKCα, full length), epidermal growth factor (EGF) receptor (EGFR, 672-1210), platelet-derived growth factor (PDGF) receptor α (PDGFRα, 550-1090), vascular endothelial growth factor (VEGF) receptor 1 (VEGFR1 784-1338), Src (full length), casein kinase 2 (CK2, full length), Aurora A (1-403), AMP-activated protein kinase α1β1γ1 (AMPK α1β1γ1, full length), glycogen synthase kinase-3α (GSK-3α, 1-483) and MAP/microtubule affinity-regulating kinase 1 (MARK 1, full length) were obtained from Cell Signaling Technology (Danvers, Mass.). Cdc2/cyclin B1 (full length) and insulin-like growth factor (IGF)-I receptor (IGFIR, 959-1367) were obtained from Upstate (Temecula, Calif.).
(§3) In order to identify the kinase that phosphorylates p55 (Tyr-199) lysates of serum-starved HEK293 cells were used for insulin, IGF and EGF stimulation. […]

EGFR = target: T2, EGFR (Homo sapiens, UniProt P00533); experiment: In vitro kinase reaction of H5 peptide with purified EGFR; assay type: biochemical
T2 construct: epidermal growth factor (EGF) receptor (EGFR, 672-1210); purchased Cell Signaling Technology (Danvers, Mass.)
Excerpt: as §1, §2, §3

Row | phosphorylation by Src (Src) | phosphorylation by EGFR (EGFR) | Molecule | level of phospho-Src (Tyr-416) (Src family kinase) | level of phospho-p55 (Tyr-199) (Src family kinase) | increase in phosphorylation in G2/M (HeLa cell lysates; G2/M (nocodazole-arrested) HeLa lysate vs asynchronously growing cells) | G2/M: changed phosphorylation (HeLa cell lysates; G2/M phase compared to asynchronously growing HeLa cells)
1 | – | – | CN(C)S(=O)(=O)c1ccc2c(c1)/C(=C/c1cc3c([nH]1)CCCC3)C(=O)N2 [Su6656, SU6656] | diminished | diminished | – | –
2 | robust phosphorylation | not | EYDRLYEEYTPFR (The sequence was designed and synthesized) [H5] | – | – | 13 fold | ++ (A change of more than +4 and −4 fold is indicated by “++” and “−−”, respectively.)
